The record followed here is patent US9035056B2, “Pyrido[4,3-b]indole and pyrido[3,4-b]indole derivatives and methods of use” (Medivation Technologies, Inc., priority 2011, dated 2015).

Test [1] deals with New Zealand White rabbits. The following applies: conscious rabbits, intravenous, positive control, before the blood pressure reversed back. As to the method: Four adult New Zealand White rabbits of both sexes are chosen for these studies. The experiments are conducted in accordance with the Australian code of Practice for the Care and use of Animals for Scientific Purposes and approval is sought from the Animal Experimental Committee of Alfred Hospital, Baker IDI, Melbourne, Australia. The conscious rabbits are implanted with an intravenous catheter in marginal ear vein or by centrally by […] catheter interfaced to a pressure transducer connected to a suitable recorder. To unveil peripheral effects of test compound, two sets of acute studies are conducted in rabbits. In the first set of studies, test compound is dosed to rabbit intravenously for a dose-response study with cumulative doses starting 0 (Ringer's Lock solution as a vehicle), 0.1, 0.3, 1, 3.2 and 10 mg/kg where each dose is tested on a separate day. A single intravenous bolus dose at 3 mg/kg is given and a time-course study is conducted in the second set of studies. Systolic, […], mean and […] blood pressures are recorded in both the studies.

Test [2] deals with T1, human recombinant dopamine D2L receptor (Homo sapiens, UniProt P14416).
T1 construct: expressed in transfected cells; host or cells: CHO
Nature of the test: Dopamine D2L radioligand binding ([3H]Spiperone). To be noted: 1 μM compound; read-out: Percentage inhibition of ligand binding, Dopamine D2L. The method, then: To evaluate in radioligand binding assays the activity of compounds of the invention, human recombinant dopamine D2L receptor expressed in Chinese hamster ovary (CHO) cells (Grandy, D. et al, Proc. Natl. Acad. Sci. USA. 86:9762, 1989; Hayes, G. et al, Mol. Endocrinol. 6:920, 1992) in a modified Tris-HCl buffer (50 mM Tris-HCl, pH 7.4, 1.4 mM Ascorbic Acid, 0.001% BSA, 150 mM NaCl) was used. Compounds of the invention were incubated with 0.16 nM [^3H]Spiperone for 120 min at 25° C. Non-specific binding was estimated in the presence of 10 μM Haloperidol. Receptor proteins were filtered and washed, the filters were then counted to determine [^3H]Spiperone specifically bound. Compounds were screened at 1 μM or lower, using 1% DMSO as vehicle. Biochemical assay results are presented as the percent inhibition of specific binding in Table 4.

Test [3] addresses T2, human recombinant serotonin (5-Hydroxytryptamine) 5-HT2A receptor (Homo sapiens, UniProt P28223).
T2 construct: expressed in transfected cells; host or cells: CHO-K1
Nature of the test: Serotonin 5-HT2A radioligand binding ([3H]Ketanserin). To be noted: 0.1 μM compound; read-out: Percentage inhibition of ligand binding, Serotonin 5-HT2A. As to the method:
To evaluate in radioligand binding assays the activity of compounds of the invention, human recombinant serotonin (5-Hydroxytryptamine) 5-HT2A receptor expressed in Chinese hamster ovary (CHO) K1 cells (Bonhaus, D. et al, Br. J. Pharmacol. 115:622, 1995; Saucier, C. et al, J. Neurochem. 68:1998, 1997) in a 50 mM Tris-HCl buffer, pH 7.4, was used. Compounds of the invention were incubated with 0.5 nM [^3H]Ketanserin for 60 min at 25° C. Non-specific binding was estimated in the presence of 1 μM Mianserin. Receptor proteins were filtered and washed, the filters were then counted to determine [^3H]Ketanserin specifically bound. Compounds were screened at 1 μM or lower, using 1% DMSO as vehicle. Biochemical assay results are presented as the percent inhibition of specific binding in Table 5.

In test [4] the target is T3, human recombinant serotonin (5-Hydroxytryptamine) 5-HT2C receptor (Homo sapiens, UniProt P28335).
T3 construct: expressed in transfected cells; host or cells: CHO-K1
T3 sequence (P28335 33-458): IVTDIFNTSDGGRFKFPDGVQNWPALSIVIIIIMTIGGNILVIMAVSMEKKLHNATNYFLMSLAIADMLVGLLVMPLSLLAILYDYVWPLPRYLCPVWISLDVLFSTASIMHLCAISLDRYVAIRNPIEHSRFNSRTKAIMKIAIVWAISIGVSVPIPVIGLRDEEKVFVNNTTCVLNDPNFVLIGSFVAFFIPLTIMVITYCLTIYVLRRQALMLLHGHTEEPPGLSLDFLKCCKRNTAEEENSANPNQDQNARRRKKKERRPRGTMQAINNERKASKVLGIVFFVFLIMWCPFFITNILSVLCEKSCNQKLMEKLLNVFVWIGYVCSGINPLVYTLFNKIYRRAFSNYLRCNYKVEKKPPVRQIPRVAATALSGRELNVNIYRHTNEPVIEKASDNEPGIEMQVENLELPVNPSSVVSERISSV
Nature of the test: Serotonin 5-HT2C radioligand binding ([3H]Mesulergine). The following applies: 0.1 μM compound; read-out: Percentage inhibition of ligand binding, Serotonin 5-HT2C. The method, then: To evaluate in radioligand binding assays the activity of compounds of the invention, human recombinant serotonin (5-Hydroxytryptamine) 5-HT2C receptor expressed in Chinese hamster ovary (CHO) K1 cells (Wolf, W. et al, J. Neurochem. 69:1449, 1997) in a modified Tris-HCl buffer (50 mM Tris-HCl, pH 7.4, 0.1% Ascorbic Acid, 10 μM Pargyline) was used. Compounds of the invention were incubated with 1 nM [^3H]Mesulergine for 60 min at 25° C. Non-specific binding was estimated in the presence of 1 μM Mianserin. Receptor proteins were filtered and washed, the filters were then counted to determine [^3H]Mesulergine specifically bound. Compounds were screened at 1 μM or lower, using 1% DMSO as vehicle. Biochemical assay results are presented as the percent inhibition of specific binding in Table 5.

Test [5] deals with T4, human recombinant serotonin (5-Hydroxytryptamine) 5-HT6 receptor (Homo sapiens, UniProt P50406).
T4 construct: expressed in transfected cells; host or cells: HeLa
Briefly: Serotonin 5-HT6 radioligand binding ([3H]LSD). To be noted: 0.1 μM compound; read-out: Percentage inhibition of ligand binding, Serotonin 5-HT6. As to the method:
To evaluate in radioligand binding assays the activity of compounds of the invention, human recombinant serotonin (5-Hydroxytryptamine) 5-HT6 receptor expressed in human HeLa cells (Monsma, F. Jr. et al, Mol. Pharmacol. 43:320, 1993) in a modified Tris-HCl buffer (50 mM Tris-HCl, pH 7.4, 150 mM NaCl, 2 mM Ascorbic Acid, 0.001% BSA) was used. Compounds of the invention were incubated with 1.5 nM [3H]Lysergic acid diethylamide (LSD) for 120 min at 37° C. Non-specific binding was estimated in the presence of 5 μM Serotonin (5-HT). Receptor proteins were filtered and washed, the filters were then counted to determine [3H]LSD specifically bound. Compounds were screened at 1 μM or lower, using 1% DMSO as vehicle. Biochemical assay results are presented as the percent inhibition of specific binding in Table 5.

Test [6] deals with T5, human recombinant histamine H1 receptor (Homo sapiens, UniProt P35367).
T5 construct: expressed in transfected cells; host or cells: CHO-K1
Briefly: Histamine H1 radioligand binding ([3H]Pyrilamine). To be noted: 1 μM compound; read-out: Binding data (Percentage inhibition) Histamine H1 (1 μM). As to the method: To evaluate in radioligand binding assays the activity of compounds of the invention, human recombinant histamine H1 receptor expressed in Chinese hamster ovary (CHO) K1 cells (De Backer, M. et al, Biochem. Biophys. Res. Comm. 197(3):1601, 1993) in a modified Tris-HCl buffer (50 mM Tris-HCl, pH 7.4, 2 mM MgCl2, 100 mM NaCl, 250 mM Sucrose) was used. Compounds of the invention were incubated with 1.2 nM [^3H]Pyrilamine for 180 min at 25° C. Non-specific binding was estimated in the presence of 1 μM Pyrilamine. Receptor proteins were filtered and washed, the filters were then counted to determine [^3H]Pyrilamine specifically bound. Compounds were screened at 1 μM or lower, using 1% DMSO as vehicle. Biochemical assay results are presented as the percent inhibition of specific binding in Table 3.

Test [7] concerns the target T6, human recombinant serotonin (5-Hydroxytryptamine) 5-HT7 receptor (Homo sapiens, UniProt P34969).
T6 construct: expressed in transfected cells; host or cells: CHO
Briefly: Serotonin 5-HT7 radioligand binding ([3H]LSD). To be noted: 0.1 μM compound; read-out: Percentage inhibition of ligand binding, Serotonin 5-HT7. The method, then: To evaluate in radioligand binding assays the activity of compounds of the invention, human recombinant serotonin (5-Hydroxytryptamine) 5-HT7 receptor expressed in Chinese hamster ovary (CHO) cells (Roth, B. et al, J. Pharmacol. Exp. Ther. 268:1403, 1994; Shen, Y. et al, J. Biol. Chem. 268:18200, 1993) in a modified Tris-HCl buffer (50 mM Tris-HCl, pH 7.4, 10 mM MgCl2, 0.5 mM EDTA) was used. Compounds of invention were incubated with 5.5 nM [^3H] Lysergic acid diethylamide (LSD) for 2 h at 25° C. Non-specific binding was estimated in the presence of 10 μM Serotonin (5-HT). Receptor proteins were filtered and washed, the filters were then counted to determine [^3H]LSD specifically bound. Compounds were screened at 1 μM or lower, using 1% DMSO as vehicle. Biochemical assay results are presented as the percent inhibition of specific binding in Table 5.

T5 sequence (P35367 whole entry): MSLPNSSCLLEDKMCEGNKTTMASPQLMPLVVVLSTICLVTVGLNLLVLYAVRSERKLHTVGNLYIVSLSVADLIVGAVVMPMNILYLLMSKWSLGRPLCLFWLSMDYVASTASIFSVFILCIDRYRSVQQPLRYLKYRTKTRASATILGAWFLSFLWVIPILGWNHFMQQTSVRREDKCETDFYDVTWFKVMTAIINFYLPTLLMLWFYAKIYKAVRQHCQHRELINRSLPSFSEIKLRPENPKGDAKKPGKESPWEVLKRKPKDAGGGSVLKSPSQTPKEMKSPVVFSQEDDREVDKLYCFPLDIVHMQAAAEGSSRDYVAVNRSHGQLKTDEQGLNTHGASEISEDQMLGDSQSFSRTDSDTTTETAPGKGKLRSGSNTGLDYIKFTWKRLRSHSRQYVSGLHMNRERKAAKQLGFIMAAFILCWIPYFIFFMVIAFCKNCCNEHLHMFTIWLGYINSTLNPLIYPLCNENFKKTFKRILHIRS
T6 sequence (P34969 whole entry): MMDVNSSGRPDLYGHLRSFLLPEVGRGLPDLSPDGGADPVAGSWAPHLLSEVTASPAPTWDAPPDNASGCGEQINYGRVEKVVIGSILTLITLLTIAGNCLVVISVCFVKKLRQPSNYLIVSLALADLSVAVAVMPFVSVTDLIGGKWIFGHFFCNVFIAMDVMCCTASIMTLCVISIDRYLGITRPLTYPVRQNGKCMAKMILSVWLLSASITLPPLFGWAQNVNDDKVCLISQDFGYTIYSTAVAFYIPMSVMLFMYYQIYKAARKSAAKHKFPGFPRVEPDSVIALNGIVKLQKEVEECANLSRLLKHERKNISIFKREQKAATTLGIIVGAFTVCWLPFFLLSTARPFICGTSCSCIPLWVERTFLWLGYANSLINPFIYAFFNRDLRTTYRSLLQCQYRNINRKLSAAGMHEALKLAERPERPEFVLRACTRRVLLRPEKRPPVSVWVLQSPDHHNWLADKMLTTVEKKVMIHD
T4 sequence (P50406 whole entry): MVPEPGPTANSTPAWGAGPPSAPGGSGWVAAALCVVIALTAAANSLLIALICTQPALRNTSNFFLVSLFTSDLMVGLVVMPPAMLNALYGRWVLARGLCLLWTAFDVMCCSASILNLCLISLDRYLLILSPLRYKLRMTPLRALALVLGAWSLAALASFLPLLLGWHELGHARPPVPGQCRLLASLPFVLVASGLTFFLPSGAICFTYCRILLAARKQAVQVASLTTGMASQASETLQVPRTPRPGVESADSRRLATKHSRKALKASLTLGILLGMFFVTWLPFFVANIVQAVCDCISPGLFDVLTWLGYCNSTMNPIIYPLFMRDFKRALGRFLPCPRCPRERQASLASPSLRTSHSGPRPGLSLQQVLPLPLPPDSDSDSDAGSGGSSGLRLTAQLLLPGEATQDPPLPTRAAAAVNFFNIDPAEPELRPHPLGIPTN
T1 sequence (P14416 whole entry): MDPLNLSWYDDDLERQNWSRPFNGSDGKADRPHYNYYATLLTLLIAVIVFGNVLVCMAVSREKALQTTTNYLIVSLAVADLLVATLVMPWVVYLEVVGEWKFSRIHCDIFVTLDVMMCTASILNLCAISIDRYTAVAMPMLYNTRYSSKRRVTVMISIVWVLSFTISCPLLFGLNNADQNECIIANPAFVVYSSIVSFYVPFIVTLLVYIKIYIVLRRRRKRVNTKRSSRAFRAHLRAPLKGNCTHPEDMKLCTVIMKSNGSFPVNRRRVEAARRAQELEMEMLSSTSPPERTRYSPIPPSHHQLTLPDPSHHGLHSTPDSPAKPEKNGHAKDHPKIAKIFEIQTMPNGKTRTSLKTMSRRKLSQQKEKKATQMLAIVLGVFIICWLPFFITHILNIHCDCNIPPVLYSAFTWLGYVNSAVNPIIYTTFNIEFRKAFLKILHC
T2 sequence (P28223 whole entry): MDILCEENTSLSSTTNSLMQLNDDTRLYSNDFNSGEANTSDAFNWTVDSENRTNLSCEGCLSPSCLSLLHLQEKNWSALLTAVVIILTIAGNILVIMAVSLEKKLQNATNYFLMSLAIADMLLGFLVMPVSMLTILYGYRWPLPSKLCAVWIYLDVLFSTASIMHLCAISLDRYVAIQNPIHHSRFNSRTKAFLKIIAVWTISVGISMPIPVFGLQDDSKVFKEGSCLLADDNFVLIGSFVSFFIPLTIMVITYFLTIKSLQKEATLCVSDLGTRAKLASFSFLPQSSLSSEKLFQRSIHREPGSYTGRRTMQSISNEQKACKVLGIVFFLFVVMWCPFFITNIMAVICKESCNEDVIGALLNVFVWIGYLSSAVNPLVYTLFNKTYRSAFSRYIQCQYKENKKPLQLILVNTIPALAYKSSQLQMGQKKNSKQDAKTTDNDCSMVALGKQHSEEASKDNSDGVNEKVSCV

Regarding `Clc1cccc(Cl)c1N=C1NCCN1` [Clonidine], in test [1], the “maximum drop of arterial blood pressure” value is listed as −6 mmHg.

One may read the inhibition as the percentage by which the read-out fell short of the control. With `CN1CCc2c(c3cc(Cl)ccc3n2C=C2CCCCC2)C1` [i-1], the inhibition at 1 µM is 93% in test [2] and 100% in test [6]. Besides, the inhibition at 0.1 µM in test [3] came to 94%; in test [4], 98%; in test [5], 91%; in test [7], 81%.
